Measurements taken from patent US6337348B1, “Oxy-vanadium (iv) complexes having spermicidal activity” (Parker Hughes Institute, priority 1998, dated 2002).

What was measured:
Assay type in all cases: cell-based
[1] = tested on: human sperm; assay: Flow cytometric quantitation of sperm acrosome reaction (anti-CD46 mAb binding); conditions: tested at 100 μM, 3 hours, 37° C., mean of two experiments
Procedure: In experiments designed to assess the comparative effects of oxovanadium (IV) complexes and N-9 on sperm acrosome reaction, motile fractions of sperm (10^7/ml) prepared from a single donor were incubated in 1 ml of BWW−0.3% BSA in the presence of 100 μM each of the vanadocene complexes, VO(phen), VO(phen)2, VO(Me2—phen), VO(Me2—phen)2, VO(Cl—phen), VO(Cl—phen)2, VO(bipy), VO(bipy)2, VO(Me2—bipy), VO(Me2—bipy)2, and VO(Br,OH—acph)2 in 0.1% DMSO, N-9, or DMSO (0.1%) alone at 37° C. After 3 hours, 5 μg/ml of purified, phycoerythrin (PE)-conjugated murine anti-CD46 monoclonal antibody (mAb; clone 122-2; Research Diagnostics, Flanders, N.J.) was added and the sperm suspensions incubated for an additional 30 minutes. The suspensions was washed in Tyrode's salt solution (Sigma) containing 1% BSA (1% TBSA) and the percentage of CD46-positive sperm were analyzed by flow cytometry using a FACS Vantage flow cytometer (Becton Dickinson, Mountain View, Calif.), as described previously (DeCruz et al., 1996, Biol Reprod. 54:1217-1228; DeCruz et al., 1992, Fertil. Seril., 58:633-636). Two separate experiments were performed to quantitate acrosomal loss following exposure of sperm to oxovanadium (IV) complexes.

[2] = tested on: human sperm; assay: Mitochondrial transmembrane potential (JC-1 dye) flow cytometry; conditions: 100 μM, 3 hours, 37° C.
Excerpt: The loss of ΔΨm, a early marker for apoptosis was quantitated by flow cytometry using the lipophilic cationic dye, 5,5′,6,6′-tetrachloro 1,1′,3,3′-tetraethylbenzimidazolecarbocyanine iodide (JC-1) as described in Cossarizza et al., 1993, BBRC 197:40-45. This dye accumulates in the mitochondrial matrix under the influence of the ΔΨm. The molecule is able to selectively enter into mitochondria, the monomeric form emitting at 527 nm after excitation at 490 nm. However, depending on the membrane potential, JC-1is able to form J-aggregates that are associated with a large shift in emission (590 nm). The color of the dye changes reversibly from green to greenish orange at ΔΨm becomes more polarized.
To quantitate changes in sperm ΔΨm following oxovanadium (IV) complex exposure, highly motile fraction of sperm (10^7/ml) in duplicate aliquots, were incubated at 37° C. for 3 hours in BWW−0.3% BSA medium in the presence and absence of 100 μM each of the vanadocene complexes, VO(phen), VO(phen)2, VO(Me2—phen), VO(Me2—phen)2, VO(Cl—phen), VO(Cl—phen)2, VO(bipy), VO(bipy)2, VO(Me2—bipy), VO(Me2—bipy)2, and VO(Br,OH—acph)2. Following incubation, 10 μg/ml JC-1 (Molecular Probes, Eugene, Oreg.) was added from a stock solution in DMSO (1 mg/ml) to the sperm suspension and incubated for an additional 10 minutes. At the end of the incubation period, sperm were washed in Tyrode's salt solution (Sigma), resuspended in 200 μl, and analyzed by flow cytometry for JC-1-specific fluorescence. The excitation was at 488 nm; the emissions for green and red/orange fluorescence were 530 nm and 575 nm respectively. JC-1 monomer and aggregated fluorescence were simultaneously measured in oxovanadium (IV) complex-exposed and control sperm. The percentages of sperm positive for green, orange, and greenish orange were determined using the cutoff signals for JC-1 labeled motile sperm.

[3] = tested on: human sperm; assay: DNA fragmentation by in situ nick-end labeling (TUNEL) flow cytometry; conditions: 100 μM, 24 hours, 37° C.
Procedure: A flow cytometric two-color terminal deoxynucleotidyl transferase (TdT) assay was employed to detect apoptotic sperm nuclei by TdT-mediated dUTP nick-end labeling (TUNEL, as described in Gavrieli et al., 1992, J. Cell Biol., 119:493-501). The comparative effect of the oxovanadium (IV) complexes, VO(phen), VO(phen)2, VO(Me2—phen), VO(Me2—phen)2, VO(Cl—phen), VO(Cl—phen)2, VO(bipy), VO(bipy)2, VO(Me2—bipy), VO(Me2—bipy)2, and VO(Br,OH—acph)2, to induce apoptosis was tested by incubating 1 ml duplicate aliquots of motile sperm (10^7/ml) in BWW−0.3% BSA at 37° C. for 24 hours with and without 100 μM each of the test compounds. Sperm were washed in phosphate-buffered saline (PBS)−1% BSA, fixed in 4% paraformaldehyde in PBS for 15 minutes. Following two washings in PBS, they were permeabilized with 0.1% Triton X-100 in 0.1% sodium citrate for 2 minutes on ice, and washed twice with PBS. New 3′-hydroxyl (3′—OH) end labeling of fragmented sperm nuclear DNA was performed using TdT and detected by fluorescein (FITC)-conjugated uridine triphosphate (dUTP) according to the manufacturer's recommendations (Boehringer-Mannheim, Indianapolis, Ind.). Sperm aliquots incubated without TdT enzyme served as a negative control. […] Oxovanadium (IV)-induced apopotosis of sperm was shown by an increase in the number of cells staining with FITC- dUTP (M2 gates). The M1 and M2 gates were used to demarcate non-apoptotic and apoptotic PI-counterstained sperm populations, respectively. Two separate experiments were performed to assess dUTP incorporation following exposure of sperm to oxovanadium (IV) complexes.

Row | Molecule | Anti-CD46 positive sperm (%) [1] | Anti-CD46 positive sperm (%) ([1]; listed as VO(Cl—phen)2) | Anti-CD46 positive sperm (%) ([1]; listed as VO(Br,OH—acph)2) | JC-1 aggregate-positive sperm (%) [2] | TUNEL positive sperm (%) [3] | TUNEL positive sperm (%) ([3]; listed as VO(Cl—phen)2)
1 | Clc1cc2cccnc2c2ncccc12.Clc1cc2cccnc2c2ncccc12.O.O=S(=O)([O-])[O-].[O]=[V+2] [VO(Cl-phen)2, (aqua)bis(5-chloro-1,10-phenanthroline)oxovanadium (IV) sulfate] | 21.5% | 21.5% |  | 35% | 97% | Greater than 97%
2 | Clc1cc2cccnc2c2ncccc12.O.O.O=S(=O)([O-])[O-].[O]=[V+2] [VO(Cl-phen), (diaqua)(5-chloro-1,10-phenanthroline)oxovanadium (IV) sulfate] | 11.2% |  |  | 39% | 95% | 
3 | Cc1ccnc2c1ccc1c(C)ccnc12.Cc1ccnc2c1ccc1c(C)ccnc12.O.O=S(=O)([O-])[O-].[O-2].[V+4] [VO(Me2-phen)2, (aqua)bis(4,7-dimethyl-1,10-phenanthroline)oxovanadium (IV) sulfate] | 11.7% |  |  | 63% | 94% | 
4 | Cc1ccnc2c1ccc1c(C)ccnc12.O.O.O=S(=O)([O-])[O-].[O]=[V+2] [VO(Me2-phen), (diaqua)(4,7-dimethyl-1,10-phenanthroline)oxovanadium (IV) sulfate] | 14.0% |  |  | 38% | 97% | 
5 | (aqua)bis(4,4′-dimethyl-2,2′-bipyridyl)oxovanadium (IV) sulfate [VO(Me2-bipy)2] | 3.2% |  |  | 62% | 63% | 
6 | (diaqua)(4,4′-dimethyl-2,2′-bipyridyl)oxovanadium (IV) sulfate [VO(Me2-bipy)] | 6.4% |  |  | 88% | 45% | 
7 | bis(5′-bromo-2′-hydroxyacetophenone)oxovanadium (IV) [VO(Br,OH-acph)2] | 24.3% |  | 24.3% | 83% | 98% | 

Second part, led by results:

Row | Anti-CD46 positive sperm (%) [1] | Anti-CD46 positive sperm (%) ([1]; listed as VO(Cl—phen)2) | Anti-CD46 positive sperm (%) ([1]; listed as VO(Br,OH—acph)2) | Molecule | JC-1 aggregate-positive sperm (%) [2] | TUNEL positive sperm (%) [3] | TUNEL positive sperm (%) ([3]; listed as VO(Cl—phen)2)
8 | 4.7% |  |  | O.O=S(=O)([O-])[O-].[O-2].[V+4].c1ccc(-c2ccccn2)nc1.c1ccc(-c2ccccn2)nc1 [VO(bipy)2, (aqua)bis(2,2′-bipyridyl)oxovanadium (IV) sulfate] | 94% | 40% | 
9 | 6.1% |  |  | O.O.O=S(=O)([O-])[O-].[O]=[V+2].c1ccc(-c2ccccn2)nc1 [VO(bipy), (diaqua)(2,2′-bipyridyl)oxovanadium (IV) sulfate] | 95% | 43% | 
10 | 9.9% |  |  | O.O=S(=O)([O-])[O-].[O]=[V+2].c1cnc2c(c1)ccc1cccnc12.c1cnc2c(c1)ccc1cccnc12 [VO(phen)2, (aqua)bis(1,10-phenanthroline)oxovanadium (IV) sulfate] | 25% | 98% | 
11 | 9.7% |  |  | O.O.O=S(=O)([O-])[O-].[O]=[V+2].c1cnc2c(c1)ccc1cccnc12 [VO(phen), (diaqua)(1,10-phenanthroline)oxovanadium (IV) sulfate] | 35% | 98% | 
